Drawing on ChEMBL document CHEMBL1201862, “PubChem BioAssay data set” (2004), this text covers EC50, AC50 and IC50 for seven compounds.

Activity calls are given as the source filed them.

In data set [1] the target is Delta-type opioid receptor (Homo sapiens, UniProt P41143). Nature of the data set: SAR Analysis of Agonists of the DOR Receptor using an Image-Based Assay - Set 3. [Related pubchem assays (depositor defined):AID1777, AID1786]. The data set is classed as functional.
The next data set concerns the target Mu-type opioid receptor (Homo sapiens, UniProt P35372). Nature of the data set: SAR Analysis of Agonists of the MOR Receptor using an Image-Based Assay - Set 3. [Related pubchem assays (depositor defined):AID1777, AID1785, AID1786, AID1966, AID2133, AID2136, AID2284, AID2285, AID2352]. The data set is classed as functional.
For data set [2], the target named is T1, Kappa-type opioid receptor (Homo sapiens, UniProt P41145). As to the kind of experiment: KOR agonist analogs, arrestin-GFP redistribution, SAR follow-up, imaging, image-based, set 3 (AID 488833). In kind it is functional.
The target in data set [3] is T1, Kappa-type opioid receptor. Nature of the data set: SAR analysis of small molecule agonists of the kappa opioid receptor via a luminescent beta-arrestin assay - Set 3. [Related pubchem assays (depositor defined):AID1777, AID1785, AID1786, AID1966, AID2133, AID2136, AID2284, AID2500]. The data set is classed as functional.
The next data set deals with Cytochrome P450 3A4 (Homo sapiens, UniProt P08684).
For the next data set, the target named is Cytochrome P450 2C9 (Homo sapiens, UniProt P11712).
In the next data set the target is Cytochrome P450 2C19 (Homo sapiens, UniProt P33261). As to the kind of experiment: Cytochrome panel assay with activity outcomes. Panel member name: p450-cyp2c19 Compounds with AC50 equal or less than 10 uM are considered active. In kind it is functional. As to conditions: read-out: AC50.
Another data set addresses Genome polyprotein (dengue virus type 2, UniProt P29990). As to the kind of experiment: Dengue-2 NS5 methyltransferase inhibitors, primary screen, biochemical, confirmation dose response (AID 588689). The data set is classed as functional.
The target of a further data set is Albumin (Bos taurus, UniProt P02769). As to the kind of experiment: Counterscreen for inhibitors of T-cell receptor (TCR)-CD3 interaction: Fluorescence-based biochemical high throughput dose response assay to identify inhibitors of T-cell receptor (TCR)-CD3 interaction using a TAMRA-labeled BSA probe. The data set is classed as functional. In general terms: A counterscreen serves to expose hits that act by an unwanted route or on another target.

The target of data set [4] is Induced myeloid leukemia cell differentiation protein Mcl-1 (Homo sapiens, UniProt Q07820). As to the kind of experiment: MCL1-BIM BH3 interaction inhibitors, dose response, biochemical, fluorescence polarization, BIM-BH3 peptide, 1536-well (AID 2217). Background: Fluorescence polarisation rises when a labelled molecule tumbles more slowly, as on binding a larger partner.

Data set [5] concerns the target T2, Alkaline phosphatase, tissue-nonspecific isozyme (Homo sapiens, UniProt P05186).
T2 sequence (P05186 whole entry): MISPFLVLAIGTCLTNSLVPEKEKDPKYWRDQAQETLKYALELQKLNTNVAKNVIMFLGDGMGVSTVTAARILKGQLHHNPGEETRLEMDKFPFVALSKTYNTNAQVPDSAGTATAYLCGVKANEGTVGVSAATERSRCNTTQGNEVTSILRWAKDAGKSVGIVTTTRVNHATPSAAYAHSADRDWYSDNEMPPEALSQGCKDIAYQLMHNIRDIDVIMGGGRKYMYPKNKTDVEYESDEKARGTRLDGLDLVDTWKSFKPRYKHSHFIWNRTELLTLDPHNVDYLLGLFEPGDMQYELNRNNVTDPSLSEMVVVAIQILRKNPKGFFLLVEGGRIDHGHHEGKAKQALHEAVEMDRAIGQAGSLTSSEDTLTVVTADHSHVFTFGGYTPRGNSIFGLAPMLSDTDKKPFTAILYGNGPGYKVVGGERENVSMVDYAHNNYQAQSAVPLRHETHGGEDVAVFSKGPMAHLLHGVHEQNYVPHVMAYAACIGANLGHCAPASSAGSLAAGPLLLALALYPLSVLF
As to the kind of experiment: TNAP enzyme activators, dose response, selectivity assay for mouse IAP activator project, biochemical, TNAP isozyme, mouse IAP uHTS hits (AID 488880). The data set is classed as functional.

Data set [6] concerns the target Intestinal-type alkaline phosphatase (Mus musculus, UniProt P24822). Nature of the data set: mouse intestinal alkaline phosphatase activators, dose response, biochemical, luminescence, uHTS hits (AID 488783). In kind it is functional.
Data set [7] deals with Intestinal-type alkaline phosphatase (Homo sapiens, UniProt P09923). As to the kind of experiment: activation of human intestinal alkaline phosphatase – biochemical, dose response (AID 488873). In kind it is functional.
The next data set concerns the target Bcl-2-like protein 1 (Homo sapiens, UniProt Q07817). Nature of the data set: BCL-XL inhibitors, dose response, selectivity assay for MCL1 inhibitor project, biochemical, fluorescence polarization, 1536-well (AID 2218).
For another data set, the target named is Phosphomannomutase 2 (Homo sapiens, UniProt O15305). Nature of the data set: Counter screen SAR assay for PMM2 inhibitors via a fluorescence intensity assay. [Related pubchem assays (depositor defined):AID1545, AID1574].
Data set [8] concerns the target T3, Mannose-6-phosphate isomerase (Homo sapiens, UniProt P34949).
T3 sequence (P34949 whole entry): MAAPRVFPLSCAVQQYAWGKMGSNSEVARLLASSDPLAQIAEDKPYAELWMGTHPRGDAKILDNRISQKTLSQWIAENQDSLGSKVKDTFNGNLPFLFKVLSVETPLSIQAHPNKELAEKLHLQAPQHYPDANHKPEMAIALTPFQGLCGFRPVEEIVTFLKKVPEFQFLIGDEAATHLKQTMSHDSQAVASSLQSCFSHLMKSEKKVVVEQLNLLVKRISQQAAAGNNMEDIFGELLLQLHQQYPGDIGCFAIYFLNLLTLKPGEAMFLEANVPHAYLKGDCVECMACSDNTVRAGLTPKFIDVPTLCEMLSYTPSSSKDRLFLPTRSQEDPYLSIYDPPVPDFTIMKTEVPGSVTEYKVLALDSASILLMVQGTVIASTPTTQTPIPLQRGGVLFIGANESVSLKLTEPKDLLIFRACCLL
As to the kind of experiment: PMI enzyme inhibitors, confirmation, biochemical, fluorescence intensity (AID 1535).

Data set [9] is described as follows: inhibitors of Trypanosoma cruzi host-cell infection, confirmation, beta-gal luminescence, NIH3T3 host cells (AID 2630). In kind it is functional, cell-based. As to conditions: Mus musculus.
Data set [10] has as its target T4, Cannabinoid receptor 2 (Homo sapiens, UniProt P34972). As to the kind of experiment: SAR analysis of agonists of the Cannabinoid Receptor 2 using an Image-Based Assay - Set 3. [Related pubchem assays (depositor defined):AID2013, AID2026]. The data set is classed as functional.
Data set [11] has as its target T5, Cannabinoid receptor 1 (Homo sapiens, UniProt P21554). As to the kind of experiment: SAR analysis of agonists of the Cannabinoid Receptor 1 using an Image-Based Assay - Set 4. [Related pubchem assays (depositor defined):AID2013, AID2026]. The data set is classed as functional.
For data set [12], the target named is T4, Cannabinoid receptor 2. Nature of the data set: SAR analysis of antagonists of the Cannabinoid Receptor 2 using an Image-Based Assay - Set 3. [Related pubchem assays (depositor defined):AID2013, AID2026]. In kind it is functional.
Data set [13] deals with T6, G-protein coupled receptor 35 (Homo sapiens, UniProt Q9HC97). Nature of the data set: SAR analysis of Antagonists of the GPR35 Receptor using an Image-Based Assay - Set 6. [Related pubchem assays (depositor defined):AID2013, AID2026]. In kind it is functional.
For data set [14], the target named is T5, Cannabinoid receptor 1. As to the kind of experiment: SAR analysis of antagonists of the Cannabinoid Receptor 1 using an Image-Based Assay - Set 4. [Related pubchem assays (depositor defined):AID2013, AID2026]. The data set is classed as functional.
The target in data set [15] is COUP transcription factor 2 (Homo sapiens, UniProt P24468). As to the kind of experiment: Luminescence-based cell-based high throughput dose response assay to identify inhibitors of COUP-TFII (NR2F2). In kind it is functional.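 Also: HEK293 cells transiently cotransfected with COUP-TFII expression vector and reporter; luciferase reporter luminescence driven by COUP-TFII from the pX2-168 reporter plasmid.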
In data set [16] the target is T7, High affinity choline transporter 1 (Homo sapiens, UniProt Q9GZV3).
T7 sequence (Q9GZV3 whole entry): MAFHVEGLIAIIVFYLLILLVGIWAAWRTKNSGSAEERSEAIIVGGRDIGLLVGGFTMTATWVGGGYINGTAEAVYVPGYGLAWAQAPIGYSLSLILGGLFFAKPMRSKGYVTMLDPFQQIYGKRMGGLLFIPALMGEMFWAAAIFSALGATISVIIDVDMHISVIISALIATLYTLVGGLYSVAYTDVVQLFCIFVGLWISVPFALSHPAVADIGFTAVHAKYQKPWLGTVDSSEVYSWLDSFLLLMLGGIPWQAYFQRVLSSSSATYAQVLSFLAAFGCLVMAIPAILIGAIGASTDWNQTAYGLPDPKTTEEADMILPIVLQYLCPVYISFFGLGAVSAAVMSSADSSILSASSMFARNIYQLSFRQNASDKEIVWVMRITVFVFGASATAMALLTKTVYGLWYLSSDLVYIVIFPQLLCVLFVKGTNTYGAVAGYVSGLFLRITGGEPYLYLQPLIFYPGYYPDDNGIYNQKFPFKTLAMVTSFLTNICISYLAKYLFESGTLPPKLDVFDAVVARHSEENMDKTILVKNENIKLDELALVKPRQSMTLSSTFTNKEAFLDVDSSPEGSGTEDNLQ
Nature of the data set: CHT inhibitors, dose response, cell-based, 5-point CRC, membrane potential dye (AID 504840). In kind it is functional.

The target in data set [17] is G-protein coupled receptor 55 (Homo sapiens, UniProt Q9Y2T6). As to the kind of experiment: SAR Analysis of Selective Antagonists of GPR55 using an Image-Based Assay - Set 4. [Related pubchem assays (depositor defined):AID2013, AID2026]. In kind it is functional.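 Also: antagonism of response to 5 µM lysophosphatidylinositol agonist.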
For data set [18], the target named is T6, G-protein coupled receptor 35. Nature of the data set: SAR analysis of Agonists of the GPR35 Receptor using an Image-Based Assay - Set 4. [Related pubchem assays (depositor defined):AID2013, AID2026]. In kind it is functional.
The target of another data set is T8, Cytochrome P450 1A2 (Homo sapiens, UniProt P05177).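 Also: PubChem cytochrome P450 panel assay, CYP1A2 panel member.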
T8 sequence (P05177 whole entry): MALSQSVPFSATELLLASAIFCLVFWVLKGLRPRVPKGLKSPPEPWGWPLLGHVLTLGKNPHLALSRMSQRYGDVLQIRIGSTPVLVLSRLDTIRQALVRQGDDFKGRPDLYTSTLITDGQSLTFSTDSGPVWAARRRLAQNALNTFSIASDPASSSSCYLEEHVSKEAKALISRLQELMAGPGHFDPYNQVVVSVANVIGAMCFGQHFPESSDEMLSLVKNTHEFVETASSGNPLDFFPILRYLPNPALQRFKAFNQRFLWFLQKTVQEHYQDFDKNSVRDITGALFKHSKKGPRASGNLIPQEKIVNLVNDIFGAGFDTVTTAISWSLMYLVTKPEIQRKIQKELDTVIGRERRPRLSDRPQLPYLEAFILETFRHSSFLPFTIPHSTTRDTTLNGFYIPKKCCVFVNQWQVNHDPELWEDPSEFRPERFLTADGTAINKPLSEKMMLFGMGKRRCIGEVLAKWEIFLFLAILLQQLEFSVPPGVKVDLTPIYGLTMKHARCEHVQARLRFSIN

T6 sequence (Q9HC97 whole entry): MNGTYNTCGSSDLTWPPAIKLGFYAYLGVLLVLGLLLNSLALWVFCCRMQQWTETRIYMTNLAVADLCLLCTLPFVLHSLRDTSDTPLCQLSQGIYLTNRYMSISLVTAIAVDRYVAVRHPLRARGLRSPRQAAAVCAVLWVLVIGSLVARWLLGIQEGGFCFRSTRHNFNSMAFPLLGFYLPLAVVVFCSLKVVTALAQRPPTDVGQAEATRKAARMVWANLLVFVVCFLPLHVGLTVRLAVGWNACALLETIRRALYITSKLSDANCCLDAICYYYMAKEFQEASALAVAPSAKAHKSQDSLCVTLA
T4 sequence (P34972 whole entry): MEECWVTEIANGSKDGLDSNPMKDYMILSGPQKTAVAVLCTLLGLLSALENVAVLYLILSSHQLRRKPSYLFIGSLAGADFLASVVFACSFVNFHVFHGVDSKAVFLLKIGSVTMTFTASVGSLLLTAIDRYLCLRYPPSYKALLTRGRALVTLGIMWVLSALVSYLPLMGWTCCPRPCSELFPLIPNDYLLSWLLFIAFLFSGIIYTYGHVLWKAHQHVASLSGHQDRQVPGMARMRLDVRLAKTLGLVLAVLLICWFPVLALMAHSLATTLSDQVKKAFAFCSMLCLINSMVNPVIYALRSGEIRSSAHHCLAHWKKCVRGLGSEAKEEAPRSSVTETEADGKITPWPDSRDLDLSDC
T5 sequence (P21554 whole entry): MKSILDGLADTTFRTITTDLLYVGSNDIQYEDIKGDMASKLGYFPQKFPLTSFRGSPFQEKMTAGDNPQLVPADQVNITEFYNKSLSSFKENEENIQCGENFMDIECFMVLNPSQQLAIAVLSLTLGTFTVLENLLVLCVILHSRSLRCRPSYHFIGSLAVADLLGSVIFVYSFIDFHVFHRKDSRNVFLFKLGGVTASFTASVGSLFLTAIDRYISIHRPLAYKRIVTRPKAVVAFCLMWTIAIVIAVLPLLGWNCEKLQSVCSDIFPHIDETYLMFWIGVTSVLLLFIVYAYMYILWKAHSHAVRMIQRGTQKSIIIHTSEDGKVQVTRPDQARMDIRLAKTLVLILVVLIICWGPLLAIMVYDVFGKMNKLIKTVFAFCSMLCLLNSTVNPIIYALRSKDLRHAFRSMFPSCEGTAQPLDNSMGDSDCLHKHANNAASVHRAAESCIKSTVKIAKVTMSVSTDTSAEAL
T1 sequence (P41145 whole entry): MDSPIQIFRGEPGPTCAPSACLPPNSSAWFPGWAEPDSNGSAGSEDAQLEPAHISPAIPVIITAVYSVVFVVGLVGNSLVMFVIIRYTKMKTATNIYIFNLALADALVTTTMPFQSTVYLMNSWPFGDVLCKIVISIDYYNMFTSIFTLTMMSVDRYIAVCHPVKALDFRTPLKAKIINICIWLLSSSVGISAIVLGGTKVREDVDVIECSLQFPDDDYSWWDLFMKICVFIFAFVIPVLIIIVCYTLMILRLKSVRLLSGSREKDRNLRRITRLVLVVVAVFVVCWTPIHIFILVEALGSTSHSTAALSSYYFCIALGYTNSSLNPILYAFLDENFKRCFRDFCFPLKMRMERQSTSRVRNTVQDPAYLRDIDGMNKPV
Cytochrome P450 2C19, sequence (P33261 whole entry): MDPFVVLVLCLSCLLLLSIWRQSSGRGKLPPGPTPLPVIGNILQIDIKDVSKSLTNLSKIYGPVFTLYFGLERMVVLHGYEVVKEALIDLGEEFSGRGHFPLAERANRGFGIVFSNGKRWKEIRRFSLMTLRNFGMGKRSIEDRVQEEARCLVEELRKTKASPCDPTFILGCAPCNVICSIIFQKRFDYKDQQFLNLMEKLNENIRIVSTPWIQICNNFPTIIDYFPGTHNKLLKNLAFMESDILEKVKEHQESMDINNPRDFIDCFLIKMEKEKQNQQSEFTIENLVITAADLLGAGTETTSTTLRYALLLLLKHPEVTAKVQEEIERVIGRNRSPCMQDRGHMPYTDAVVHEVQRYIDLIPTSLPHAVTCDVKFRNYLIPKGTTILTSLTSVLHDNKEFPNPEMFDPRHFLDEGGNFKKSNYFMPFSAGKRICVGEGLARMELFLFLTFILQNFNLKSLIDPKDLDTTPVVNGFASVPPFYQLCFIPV
Mu-type opioid receptor, sequence (P35372 whole entry): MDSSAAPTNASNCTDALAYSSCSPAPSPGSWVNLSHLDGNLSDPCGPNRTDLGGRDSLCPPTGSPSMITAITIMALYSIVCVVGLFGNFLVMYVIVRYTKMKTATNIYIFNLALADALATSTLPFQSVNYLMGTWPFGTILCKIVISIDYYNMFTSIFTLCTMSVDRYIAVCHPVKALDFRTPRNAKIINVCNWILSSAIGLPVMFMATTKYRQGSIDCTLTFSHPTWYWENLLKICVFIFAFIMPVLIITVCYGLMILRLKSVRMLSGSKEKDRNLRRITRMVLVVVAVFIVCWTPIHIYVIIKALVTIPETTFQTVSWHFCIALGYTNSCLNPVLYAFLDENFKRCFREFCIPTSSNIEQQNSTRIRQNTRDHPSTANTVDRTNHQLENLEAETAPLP
Intestinal-type alkaline phosphatase (Mus musculus, UniProt P24822), sequence (P24822 whole entry): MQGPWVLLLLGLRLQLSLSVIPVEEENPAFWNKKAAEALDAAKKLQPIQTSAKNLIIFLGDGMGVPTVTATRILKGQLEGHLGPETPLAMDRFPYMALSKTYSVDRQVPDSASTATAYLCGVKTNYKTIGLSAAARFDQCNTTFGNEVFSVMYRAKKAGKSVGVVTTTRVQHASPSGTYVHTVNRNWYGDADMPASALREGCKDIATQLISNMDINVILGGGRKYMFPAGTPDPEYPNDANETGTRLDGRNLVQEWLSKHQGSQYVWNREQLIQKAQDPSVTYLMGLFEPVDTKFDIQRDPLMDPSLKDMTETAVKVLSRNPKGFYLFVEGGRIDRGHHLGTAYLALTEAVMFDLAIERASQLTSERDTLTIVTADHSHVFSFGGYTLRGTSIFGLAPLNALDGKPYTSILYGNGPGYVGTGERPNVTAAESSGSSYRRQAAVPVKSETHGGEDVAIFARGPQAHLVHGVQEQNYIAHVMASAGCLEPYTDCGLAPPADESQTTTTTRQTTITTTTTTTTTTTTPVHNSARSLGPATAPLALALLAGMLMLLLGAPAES
Induced myeloid leukemia cell differentiation protein Mcl-1, sequence (Q07820 whole entry): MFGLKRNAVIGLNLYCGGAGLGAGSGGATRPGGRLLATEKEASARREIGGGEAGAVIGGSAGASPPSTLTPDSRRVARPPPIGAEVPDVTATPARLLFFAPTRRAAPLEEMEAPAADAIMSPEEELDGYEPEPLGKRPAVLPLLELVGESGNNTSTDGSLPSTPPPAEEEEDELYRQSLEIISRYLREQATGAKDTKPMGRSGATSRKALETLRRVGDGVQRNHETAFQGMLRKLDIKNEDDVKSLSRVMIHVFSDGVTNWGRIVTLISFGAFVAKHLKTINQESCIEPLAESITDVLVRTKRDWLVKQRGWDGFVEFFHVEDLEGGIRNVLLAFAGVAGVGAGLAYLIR
COUP transcription factor 2, sequence (P24468 whole entry): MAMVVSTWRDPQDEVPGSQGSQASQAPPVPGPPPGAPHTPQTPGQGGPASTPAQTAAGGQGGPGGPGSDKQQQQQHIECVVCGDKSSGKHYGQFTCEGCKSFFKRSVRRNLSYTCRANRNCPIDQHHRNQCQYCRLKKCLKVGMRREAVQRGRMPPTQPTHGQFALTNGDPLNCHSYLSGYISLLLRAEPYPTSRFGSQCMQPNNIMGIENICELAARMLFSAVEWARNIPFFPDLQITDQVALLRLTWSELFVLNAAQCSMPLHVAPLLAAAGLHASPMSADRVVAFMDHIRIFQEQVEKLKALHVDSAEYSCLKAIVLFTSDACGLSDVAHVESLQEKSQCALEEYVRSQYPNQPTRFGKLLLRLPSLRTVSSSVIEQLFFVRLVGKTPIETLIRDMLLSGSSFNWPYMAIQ
Delta-type opioid receptor, sequence (P41143 whole entry): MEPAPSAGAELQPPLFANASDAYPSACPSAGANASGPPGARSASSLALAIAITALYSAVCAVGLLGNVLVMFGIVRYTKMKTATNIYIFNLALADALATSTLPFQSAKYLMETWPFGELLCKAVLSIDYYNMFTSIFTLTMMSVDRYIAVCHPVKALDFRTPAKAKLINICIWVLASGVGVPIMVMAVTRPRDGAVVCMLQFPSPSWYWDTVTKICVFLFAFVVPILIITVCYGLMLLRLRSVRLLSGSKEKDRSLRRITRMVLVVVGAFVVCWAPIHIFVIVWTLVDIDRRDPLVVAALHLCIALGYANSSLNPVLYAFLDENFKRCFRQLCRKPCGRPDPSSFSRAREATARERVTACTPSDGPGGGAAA
Albumin, sequence (P02769 whole entry): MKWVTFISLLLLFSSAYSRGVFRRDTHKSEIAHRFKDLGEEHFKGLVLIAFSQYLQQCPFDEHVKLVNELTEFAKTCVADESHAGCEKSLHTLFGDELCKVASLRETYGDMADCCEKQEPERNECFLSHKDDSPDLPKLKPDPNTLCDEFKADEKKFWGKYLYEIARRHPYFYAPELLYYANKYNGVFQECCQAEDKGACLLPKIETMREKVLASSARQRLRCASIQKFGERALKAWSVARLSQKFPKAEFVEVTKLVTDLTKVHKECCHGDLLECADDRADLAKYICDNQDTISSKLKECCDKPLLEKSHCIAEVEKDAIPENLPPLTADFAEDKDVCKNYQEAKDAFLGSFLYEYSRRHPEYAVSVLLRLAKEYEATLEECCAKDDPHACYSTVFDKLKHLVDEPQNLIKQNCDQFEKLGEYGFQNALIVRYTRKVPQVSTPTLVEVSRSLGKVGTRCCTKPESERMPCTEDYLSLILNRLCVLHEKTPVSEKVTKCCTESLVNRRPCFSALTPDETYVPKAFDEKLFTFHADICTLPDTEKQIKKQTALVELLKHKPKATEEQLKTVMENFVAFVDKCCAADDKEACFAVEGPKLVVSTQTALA
Bcl-2-like protein 1, sequence (Q07817 whole entry): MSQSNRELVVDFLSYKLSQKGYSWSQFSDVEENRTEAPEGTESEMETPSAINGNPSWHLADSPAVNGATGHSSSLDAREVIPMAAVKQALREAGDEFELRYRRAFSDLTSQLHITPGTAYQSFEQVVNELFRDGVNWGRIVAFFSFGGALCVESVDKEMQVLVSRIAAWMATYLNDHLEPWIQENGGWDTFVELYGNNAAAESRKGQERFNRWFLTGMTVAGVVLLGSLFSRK

With `Fc1ccc(CSc2nnc(-c3ccccn3)n2Cc2ccco2)c(F)c1F`, the EC50 was > 64 µM (inactive) in data set [1], > 32 µM (inactive) at Mu-type opioid receptor, 5.29 µM (active) in data set [2] and 7.01 µM (active) in [3].
As to `Cc1ccc(C)c(N2CCN(C(=O)C3CCN(S(=O)(=O)c4cccc5nsnc45)CC3)CC2)c1`, the results for the concentration at half-maximal activity (AC50) result on Cytochrome P450 3A4, at Cytochrome P450 2C9 and at Cytochrome P450 2C19 were “inconclusive”, 7.08 µM (inconclusive) and 4.47 µM (inconclusive), respectively.
Turning to `O=c1cc(-c2ccc(O)cc2)oc2c(O)c(O)c(O)c(O)c12`, the IC50 at Genome polyprotein is > 100 µM (active); at Albumin, > 94.2 µM (inactive); in data set [4] it was 18.8 µM (not active); against Bcl-2-like protein 1, > 109 µM (not active). Moreover, the EC50 in data set [5] is 43.4 µM (active); in data set [6], 71.9 µM (active); in [7], 81 µM (active).
Take `COCC/N=c1\ssnc1Cl`: the IC50 on Phosphomannomutase 2 was > 100 µM (inactive); in [8], 11.9 µM (active).
Turning to `O=C(CN1CCOCC1)N/N=C/c1ccc([N+](=O)[O-])o1`, the EC50 in data set [9] is 0.127 µM (active).
As to `Oc1ccc(-c2n[nH]c(C(F)(F)F)c2-c2ccccc2)c(O)c1`, the EC50 at Cannabinoid receptor 2 [10] is 27.4 µM (inactive); on Cannabinoid receptor 1 [11], > 32 µM (inactive); in [18], > 32 µM (inactive). Further, the IC50 at Cannabinoid receptor 2 [12] was > 32 µM (inactive); in [13], > 32 µM (inactive); on Cannabinoid receptor 1 [14], 3.49 µM (active); in data set [15] it was 10.9 µM (inactive); in data set [16], 11 µM (active); in data set [17], 2.95 µM (active).
As to `CC(C)[C@@H]1C(=O)N(S(C)(=O)=O)[C@H]2CCN(C(=O)/C=C\CN3CCCCC3)[C@@H]12`, the AC50 entry is “inconclusive” at Cytochrome P450 1A2 and 20 µM (inconclusive) on Cytochrome P450 2C19.

As a reminder, the EC50 is the concentration at which the effect is half-maximal. The AC50 is the concentration giving half of the maximal activity seen. By IC50 is commonly meant the point on the concentration scale where inhibition reaches its midpoint.
